Patent US11535599B2, “Benzisoxazole derivative” (Sumitomo Pharma Co., Ltd., priority 2020, dated 2022)

Experiments:
[1] = tested on: reserpine-induced Parkinson's disease model mouse; experiment: Potentiating effect of levodopa-induced hyperactivity in reserpine-induced Parkinson's disease model mouse; type: in vivo; conditions: Examples 12.5 or 25 mg/kg oral; rasagiline 3 or 10 mg/kg; with levodopa 200 mg/kg i.p.
Protocol: Dopamine-depleted mice due to reserpine treatment are model mice of akinesia symptoms in Parkinson's disease, said symptoms are relieved with levodopa (L-DOPA). The effect of the present compounds for potentiating the levodopa's effect was tested.
In the present test, male Crl: CD1 (ICR) mice (CHARLES RIVER LABORATORIES JAPAN, INC.) were used. 20-24 hours before starting the movement measurement, reserpine (3 mg/kg) was intraperitoneally administered to the mouse. One hour before starting the movement measurement, the present compound (12-.5 mg/kg or 25 mg/kg of. Examples 1, 2, 3, 4, and 5) was orally administered to the mouse. Shortly before starting the movement measurement, levodopa (200 mg/kg) with benserazide whose amount was ¼ of levodopa in free form was intraperitoneally administered to the mouse. The movement measurement was carried out for 90 minutes, and each total movement was compared.

[2] = tested on: oxaliplatin chemotherapy-induced peripheral neuropathy model; experiment: Anti-allodynia effect in chemotherapy-induced peripheral neuropathy model (acetone test); type: in vivo, rat; conditions: Example 13 100 mg/kg oral once a day 17 times; duloxetine 30 mg/kg oral single
Source text: As one of chemotherapy-induced peripheral neuropathy, sensory disturbance due to neuropathy caused by a platinating agent that is an anticancer agent such as cisplatin and oxaliplatin is known, and the symptom is difficult to be recovered even after the medication is discontinued. The therapeutic effect for sensory disturbance caused by repetitive administration of oxaliplatin was studied in the present test.
To male Crl: CD (SD) rats (7 weeks old) (CHARLES RIVER LABORATORIES JAPAN, INC.), oxaliplatin (5 mg/kg) was intraperitoneally administered for the two consecutive days in a week, totally 6 times, to prepare chemotherapy-induced peripheral neuropathy models. The compound of Example 13 (100 mg/kg) was repeatedly orally administered once a day, totally 17 times. […] In the acetone test, 0.1 mL of acetone was sprayed to the foot sole of the rat hind paw, and the reaction was evaluated according a scoring (Cold Score). When there was no reaction for 20 seconds after spraying acetone, Score 0 was recorded and the observation was stopped. When there was any reaction for the 20 seconds, the observation was continued until 40 seconds after spraying, and the score was recorded according to the evaluation scale. The acetone spray was done twice each for right and left hind paws, and the total score was calculated. […]

[3] = tested on: unilateral lesion model of nigrostriatal dopamine neuron induced with 6-OHDA; experiment: Anti-tremor effect in 6-OHDA unilateral lesion model; type: in vivo, rat; conditions: 3 mg/kg oral, counted 10 minutes one hour later
Source text: A unilateral lesion model of nigrostriatal dopamine neuron induced with 6-OHDA is broadly used for evaluating the drug efficacy for treating Parkinson's disease, as shown in Test 3. In addition, the present model is known to present with jaw tremor which corresponds to the tremor frequency in a patient of Parkinson's disease, thus which is also expected to be a tremor model in Parkinson's disease. With the present model, the effect of the present compound for inhibiting the tremor in Parkinson's disease was evaluated. According to the procedure described in Test 3, a unilateral lesion model of nigrostriatal dopamine neuron was prepared. The compound of Example 13 (3 mg/kg) was orally administered to the model rat. One hour later, the number of tremulous jaw movements was counted for 10 minutes.

mouse elevated plus maze = experiment: Anxiolytic-like action, mouse elevated plus maze; type: in vivo; conditions: Example 13 at 10 mg/kg or more oral; diazepam 3 mg/kg oral
Protocol: In Parkinson's disease, psychiatric symptom (e.g. depression, anxiety) is known as one of its non-motor symptoms. The anxiolytic-like action of the present invention was evaluated with mouse elevated plus maze. The present test is broadly used as a method for evaluating the anxiolytic-like action of agents.
In the present test, male Crl: CD1 (ICR) mice (CHARLES RIVER LABORATORIES JAPAN, INC.) were used. One hour before the test was started, the solvent, the compound of Example 13 (3 mg/kg, 10 mg/kg, 30 mg/kg, or 100 mg/kg), or diazepam (3 mg/kg) which is a positive control was orally administered to the mouse. The mouse was put into a center platform in which the illuminance was adjusted to 80-100 Lux level. The head of the mouse was set toward the closed arm, and then the test was started. The mouse was allowed to explore freely for 5 minutes. When ⅓ of the mouse's body entered the arm, the behavior was counted as arm entry. And, the time spent in the open arm was also measured with a stopwatch. The ratio of the count of the open arm entry per the count of the all arm entry, and the ratio of the time spent in the open arm per the total exploration time (5 minutes) were calculated. […] Thus, the ratio of the count of the open arm entry per the count of the all arm entry, and the ratio of the time spent in the open arm per the total exploration time tend to be small values. When these ratios in the drug administration group are higher than those of the solvent administration group, it can be judged that the drug has anxiolytic-like action.

SMILES	levodopa-induced hyperactivity (total movement, 90 minutes) [1]	Cold Score in acetone test [2]	number of tremulous jaw movements [3]	count of the open arm entry (mouse elevated plus maze)	time spent in the open arm (mouse elevated plus maze)
CC(c1noc2ccccc12)S(N)(=O)=O (centres unmarked) [Example 1, 1-(Benzo[d]isoxazol-3-yl)ethane-1-sulfonamide]	significantly-potentiating effect of levodopa-induced hyperactivity				
C[C@H](c1noc2ccccc12)S(N)(=O)=O [Example 13, (1R)-1-(1,2-benzoxazol-3-yl)ethane-1-sulfonamide]		significantly lower Cold Score	significantly decreased the number of tremulous jaw movements per unit time	increase significantly	increase significantly
